# Source: patent publication US10548942B2, “CXCR antagonistic peptides and uses thereof” (STC.UNM, priority 2013, dated 2020)
# Entries after “also recorded” stand apart in the source; their conditions may differ.
# Legend:
# CXCR2 receptor = molecular target: T1, CXCR2 receptor (Rattus norvegicus, UniProt P35407); assay: ac-PGP-induced apoptosis in primary cortical neurons, TUNEL stain; format: cell-based
# T1 construct: endogenous in cells; host or cells: primary cortical neurons from Sprague-Dawley rat embryos (E18)
# T1 sequence (P35407 1-359): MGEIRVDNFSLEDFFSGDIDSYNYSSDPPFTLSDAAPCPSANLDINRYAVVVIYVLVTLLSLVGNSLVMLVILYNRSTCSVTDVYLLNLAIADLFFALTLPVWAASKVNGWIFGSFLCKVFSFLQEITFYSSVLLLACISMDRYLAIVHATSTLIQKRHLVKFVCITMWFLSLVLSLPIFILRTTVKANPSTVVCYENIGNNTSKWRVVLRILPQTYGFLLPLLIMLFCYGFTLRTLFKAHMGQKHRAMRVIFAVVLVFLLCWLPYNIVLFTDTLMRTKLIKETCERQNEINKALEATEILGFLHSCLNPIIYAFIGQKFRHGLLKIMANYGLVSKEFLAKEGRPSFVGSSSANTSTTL
# Experimental: First, the mechanism by which ac-PGP induces apoptosis in cortical neurons was investigated. Because ac-PGP is reported to engage neutrophil CXCR2 receptors, whether an established CXCR2 receptor antagonist, SB225002, could influence ac-PGP neurotoxicity was tested.
# Cortical neurons were obtained from Sprague-Dawley rat embryos at day 18 of gestation. Cortices were triturated digested with 0.025% trypsin in phosphate buffer saline (PBS) for 10 minutes. Digestion was stopped by the addition of Dulbecco's Modified Eagle Medium (DMEM) containing 10% fetal bovine serum (FBS). Trypsinized cells were filtered using […] disposable cell filters (Becton-Dickinson), washed twice with Neurobasal medium (Gibco) containing 4% FBS, and preplated 4 times for 30 minutes in 150 mm vacuum-plasma treated dishes (Becton-Dickinson). During these preplating steps, primarily non-neuronal cells adhere to the dish, thereby enriching the neuronal population. […] At 7 DIV, cortical cultures were 98% neurons as assessed by microtubule-associated protein 2 (MAP2) antibody labeling and flow cytometry analysis (data not shown). […]
# Cortical neurons were obtained from Sprague-Dawley rat embryos at day 18 of gestation. […] At 7 DIV, cortical cultures were 98% neurons as assessed by microtubule-associated protein 2 (MAP2) antibody labeling and flow cytometry analysis (data not shown).
# cortical neurons = assay: oxygen-glucose deprivation (OGD) model of stroke in primary neurons; format: cell-based, rat; conditions: for protection from OGD: treatment at reoxygenation or 5, 15, 30, or 60 minutes after reoxygenation, vs vehicle
# Experimental: Cortical neurons were obtained from Sprague-Dawley rat embryos at day 18 of gestation. Cortices were triturated digested with 0.025% trypsin in phosphate buffer saline (PBS) for 10 minutes. Digestion was stopped by the addition of Dulbecco's Modified Eagle Medium (DMEM) containing 10% fetal bovine serum (FBS). Trypsinized cells were filtered using […] disposable cell filters (Becton-Dickinson), washed twice with Neurobasal medium (Gibco) containing 4% FBS, and preplated 4 times for 30 minutes in 150 mm vacuum-plasma treated dishes (Becton-Dickinson). During these preplating steps, primarily non-neuronal cells adhere to the dish, thereby enriching the neuronal population. Enriched neurons were plated at a density of 50×10^3/cm2 in Neurobasal medium containing 4% FBS, 25 μM Glutamax (Gibco), and penicillin-streptomycin (Gibco) in while clear-bottomed 96-well plates (353377) or 24-well plates (353226) (Becton-Dickinson) coaled overnight with 50 μg/ml poly-D-lysine. At plating, spaces between wells in 96-well plates were filled with 50 μl sterile water to minimize evaporation of medium at the edges of the dish. Twenty-four hours later (1 day in vitro, 1 DIV), 50% of the medium was replaced with Neurobasal medium, 2% B27 (Gibco), and 4 μM cytosine arabinoside (AraC) (2 μM AraC final). At 5 DIV, 50% of the medium was replaced with Neurobasal, 2% B27. At 7 DIV, cortical cultures were 98% neurons as assessed by microtubule-associated protein 2 (MAP2) antibody labeling and flow cytometry analysis (data not shown).
# Cortical neurons were deprived of oxygen and glucose by incubation in deoxygenated glucose-free Hank's buffered saline solution (HBSS). HBSS was prepared as follows: sodium chloride, NaCl, 8.0 g/L, potassium chloride, KCl, 0.4 g/L, potassium phosphate monobasic, KH2PO4, 0.06 g/L, sodium phosphate dibasic, Na2HPO4, 0.048 g/L, magnesium sulfate. MgSO4, 0.098 g/L, calcium chloride, CaCl2, 0.14 g/L, sodium bicarbonate, NaHCO3, 0.35 g/L, D-glucose, C6H12O6, 1.0 g/L. Solutions were adjusted to pH 7.4 and sterilized by vacuum filtration through 0.2 μm polyether sulfone (PES) membranes. Glucose-free HBSS was prepared by omitting glucose and adding an additional half molar amount of NaCl to adjust osmolarity (8.162 g/L NaCl). Glucose-free HBSS was deoxygenated in a gas washing bottle with 95% nitrogen, 5% CO2 for 20 minutes at a flow rate of 3 L/min in a 37° C. water bath. Culture dishes were washed twice with deoxygenated glucose-free HBSS and incubated for 2 hours in glucose-free deoxygenated HBSS (OGD). Normoxic control cells were handled identically but were incubated in a 5% CO2 incubator with normal HBSS pre-equilibrated in a 5% CO2 atmosphere overnight. […]
smiles,measurement,setting,value
O=C(Nc1ccc([N+](=O)[O-])cc1O)Nc1ccccc1Br [SB225002],"ac-PGP-induced apoptosis (TUNEL stain), dose comparison",CXCR2 receptor; 1 nM vs 0.01 and 0.1 nM,significantly less apoptotic
same,ac-PGP-induced apoptosis (TUNEL stain),"CXCR2 receptor; pretreatment of primary cortical neurons before ac-PGP exposure, all doses, vs ac-PGP alone",significantly less apoptotic; also recorded: blocked ac-PGP neurotoxicity
same,neuronal protection compared to administration at reoxygenation,cortical neurons; administered at 15 minutes post-reoxygenation,significantly decreased; also recorded: significantly declined
same,apoptosis after 2-hour OGD,"cortical neurons; pretreatment, 24-hour reoxygenation, vs vehicle-treated controls",significantly less apoptotic; also recorded: significant protection from OGD
same,protection from OGD,cortical neurons,significant protection
same,protection from OGD,cortical neurons; listed as SB2225002,provided neuroprotection
